Source: US11622947B2, “Compositions comprising quillaja extract and methods of preparations and use thereof” (American River Nutrition, LLC, priority 2019, dated 2023)
Entries after “also recorded” stand apart in the source; their conditions may differ. Like-named read-outs stand apart in the source and are kept apart here.

Experiments:
[1] = Surface tension interaction by visual observation of glass smearing above the water level; format: physicochemical
Procedure: This example sets forth comparisons of the surface tension interactions of the compositions of Example A2-A7. The surface tension interactions of the compositions of various active ingredients mixed with quillaja powder at various fixed ratios were specifically compared with those of the compositions of various active ingredients without quillaja powder. Surface tension interaction is determined by visual observation of glass smearing of active ingredient powders above the water level. • a) Relative surface tension interaction without quillaja powder: (CoQ10(ubiquinone)≥Curcumin)>(Resveratrol≥DIM)>(Quercetin≥Berberine) • b) Relative surface tension interaction with quillaja powder: […]

[2] = Dispersibility / sedimentation of active powder with quillaja powder in DI water (time-dependent trial); format: physicochemical; conditions: for Relative Dispersibilities without quillaja powder: FIGS. 1-6
Procedure: This example sets forth compositions and methods for making compositions of one active ingredient with quillaja powder. Each of the compositions is prepared by mixing one active ingredient with quillaja powder at a fixed ratio of about 75:25, about 60:40, about 50:50, about 40:60, or about 25:75. This example also sets forth methods to test the dispersibilities of the resulting compositions.
• 1. Add 5 mL DI water to 15 mL disposable glass test tube • 2. Weight out Active ingredient (back weigh for accuracy) • a. For 100% active ingredient, weigh out close to the target amount, note the weight, then zero the balance (with active ingredient still on it) • b. Add active ingredient to test tube with DI water • c. Place mostly empty powder weight boat back onto scale and record actual weight added • d. For other mixtures of active ingredient and quillaja powder, perform similar but add to new weight boat to mix powders (instead of adding directly to test tube) • 3. Weigh out quillaja powder (back weigh for accuracy) • a. Weigh out close to target amount of quillaja, note the weight, then zero the balance (with quillaja still on it) • b. Add quillaja to mixture weight boat (with active) • c. Place mostly empty quillaja weigh boat back onto scale and record actual weight added • 4. Repeat for all ratios of powder mixtures below (dose-dependent study):
• 5. Mix powders together • 6. Add powder mixture to the test tube with DI water. Vortex for exactly 2 minutes and perform time-dependent study • 7. Let settle for 10 minutes then take picture/note observations such as degree of turbidity, dispersibility, any large solids, etc. • 8. After 30 minutes (total), take picture/note observations • 9. After 2 hours (total), take picture/note observations • 10. After 4 hours (total), take picture/note observations • 11. Take special note of the size of the solid “pellet” that settles out on the bottom • a. Try to measure its size (estimated) by taking the radius/diameter combined with the height
This example sets forth compositions of CoQ10 powder and quillaja powder at fixed ratios of 100:0, about 75:25, about 60:40, about 50:50, about 40:60, and about 25:75 respectively. As used herein in Example A2, CoQ10 powder is ubiquinone powder as CoQ10(ubiquinone) powder. The compositions have been prepared according to experimental procedures in Example 1A. A time-dependent trial of sedimentation rates of the compositions comprising ubiquinone powder and quillaja powder at different ratios in water was conducted at time points of 10 minutes, 30 minutes, 2 hours, and 4 hours are shown in FIG. 1. Regarding the test tubes in each of the pictures of FIG. 1, from right to left, the weight ratios of CoQ10(ubiquinone) powder to quillaja powder are in the order of 100:0, about 75:25, about 60:40, about 50:50, about 40:60, and about 25:75 respectively. […] Increasing extent of turbidity was indicative of the highest dispersibility and solubility.
This example sets forth comparisons of the dispersibilities for compositions of Examples A2-A7, which comprise various active ingredients mixed with quillaja powder at various fixed ratios. After comparing the results shown in FIGS. 1-6, the relative dispersibilities are as following: • a) Relative Dispersibilities without quillaja powder: Quercetin>Berberine>Resveratrol>Curcumin>DIM>CoQ10(ubiquinone) • b) Relative Dispersibilities with quillaja powder at time point of 30 minute or less: Quercetin>(Curcumin=Resveratrol)>(DIM=Berberine)>CoQ10(ubiquinone) • c) Relative Dispersibilities with quillaja powder at time point of 2 hours or more Quercetin>(DIM=Curcumin=Resveratrol)>Berberine>CoQ10(ubiquinone)

[3] = Bioaccessibility of ubiquinol by simulated in vitro digestion; format: in vitro ADME; conditions: HPLC of filtered supernatant
Excerpt: In some embodiments, methods of increasing the bioaccessibility and/or bioavailability of an active ingredient in a subject are provided. The active ingredient can be any active ingredients, such as, but not limited to, those described herein. In some embodiments, the methods comprise administering to the subject any of the compositions provided for herein. The administration can be by any method, such as those described herein. […] An increase in bioaccessibility can be determined by any suitable method. For example, bioaccessibility can be measured by simulated in vitro digestion. […] Without being bound to any particular method, in some embodiments, bioaccessibility is determined by mixing a sample (a composition) with a saliva solution and, optionally, mucin. […] The samples can then be analyzed by HPLC to determine the increase in bioaccessibility. Bioaccessibility can be calculated by dividing the amount of the at least one active ingredient measured by, for example HPLC, by the theoretical (or actual amount of ubiquinol in the sample)×100 to determine the percent bioaccessibility. […]
This example sets forth to test the effect of quillaja powder on bioaccessiblity of ubiquinol. Bioaccessibility of ubiquinol was measured by simulated in vitro digestion. […] Bioaccessibility (%)=(ubiquinol measured by HPLC/theoretical amount of ubiquinol in the sample)×100%.

[4] = active:quillaja 100:0, DI water, 10 minutes, 30 minutes, 2 hours, 4 hours

Row | Relative surface tension interaction without quillaja powder ([1]; listed as berberine) | dispersibility and solubility in water, tube without quillaja powder [2, 4] | dispersibility and solubility in water, tube without quillaja powder [2] | Relative surface tension interaction without quillaja powder ([1]; listed as curcumin) | Relative surface tension interaction without quillaja powder ([1]; listed as quercetin) | Structure (SMILES) | Relative surface tension interaction without quillaja powder [1] | Relative Dispersibilities with quillaja powder at time point of 30 minute or less [2] | Relative Dispersibilities with quillaja powder at time point of 2 hours or more [2] | Relative Dispersibilities without quillaja powder [2] | bioaccessibility of ubiquinol [3] [%]
1 | Lowest surface tension | complete separation | – | – | – | COc1ccc2cc3[n+](cc2c1OC)CCc1cc2c(cc1-3)OCO2 [Berberine, berberine] | (CoQ10(ubiquinone)≥Curcumin)>(Resveratrol≥DIM)>(Quercetin≥Berberine) | Quercetin>(Curcumin=Resveratrol)>(DIM=Berberine)>CoQ10(ubiquinone) | Quercetin>(DIM=Curcumin=Resveratrol)>Berberine>CoQ10(ubiquinone) | Quercetin>Berberine>Resveratrol>Curcumin>DIM>CoQ10(ubiquinone) | –
2 | – | – | complete separation | – | – | COC1=C(OC)C(=O)C(C/C=C(\C)CC/C=C(\C)CC/C=C(\C)CC/C=C(\C)CC/C=C(\C)CC/C=C(\C)CC/C=C(\C)CC/C=C(\C)CC/C=C(\C)CCC=C(C)C)=C(C)C1=O [CoQ10(ubiquinone), ubiquinone] | (CoQ10(ubiquinone)≥Curcumin)>(Resveratrol≥DIM)>(Quercetin≥Berberine); also recorded: Highest surface tension | Quercetin>(Curcumin=Resveratrol)>(DIM=Berberine)>CoQ10(ubiquinone) | Quercetin>(DIM=Curcumin=Resveratrol)>Berberine>CoQ10(ubiquinone) | Quercetin>Berberine>Resveratrol>Curcumin>DIM>CoQ10(ubiquinone) | –
3 | – | complete separation | – | Highest surface tension | – | COc1cc(/C=C/C(=O)CC(=O)/C=C/c2ccc(O)c(OC)c2)ccc1O [Curcumin, curcumin] | (CoQ10(ubiquinone)≥Curcumin)>(Resveratrol≥DIM)>(Quercetin≥Berberine) | Quercetin>(Curcumin=Resveratrol)>(DIM=Berberine)>CoQ10(ubiquinone) | Quercetin>(DIM=Curcumin=Resveratrol)>Berberine>CoQ10(ubiquinone) | Quercetin>Berberine>Resveratrol>Curcumin>DIM>CoQ10(ubiquinone) | –
4 | – | – | complete separation | – | Lowest surface tension | O=c1c(O)c(-c2ccc(O)c(O)c2)oc2cc(O)cc(O)c12 [Quercetin, quercetin] | (CoQ10(ubiquinone)≥Curcumin)>(Resveratrol≥DIM)>(Quercetin≥Berberine) | Quercetin>(Curcumin=Resveratrol)>(DIM=Berberine)>CoQ10(ubiquinone) | Quercetin>(DIM=Curcumin=Resveratrol)>Berberine>CoQ10(ubiquinone) | Quercetin>Berberine>Resveratrol>Curcumin>DIM>CoQ10(ubiquinone) | –
5 | – | complete separation | – | – | – | Oc1ccc(C=Cc2cc(O)cc(O)c2)cc1 [Resveratrol, resveratrol] | (CoQ10(ubiquinone)≥Curcumin)>(Resveratrol≥DIM)>(Quercetin≥Berberine) | Quercetin>(Curcumin=Resveratrol)>(DIM=Berberine)>CoQ10(ubiquinone) | Quercetin>(DIM=Curcumin=Resveratrol)>Berberine>CoQ10(ubiquinone) | Quercetin>Berberine>Resveratrol>Curcumin>DIM>CoQ10(ubiquinone) | –
6 | – | – | – | – | – | COc1c(O)c(C)c(C/C=C(\C)CC/C=C(\C)CC/C=C(\C)CC/C=C(\C)CC/C=C(\C)CC/C=C(\C)CC/C=C(\C)CC/C=C(\C)CC/C=C(\C)CCC=C(C)C)c(O)c1OC [sample A, ubiquinol] | – | – | – | – | 0.88
